The values that follow come from ChEMBL document CHEMBL1201862, “PubChem BioAssay data set” (2004).

Activity calls are given as the source filed them.

The target of data set [1] is T1, Rac GTPase-activating protein 1 (Homo sapiens, UniProt Q9H0H5).
T1 sequence (Q9H0H5 whole entry): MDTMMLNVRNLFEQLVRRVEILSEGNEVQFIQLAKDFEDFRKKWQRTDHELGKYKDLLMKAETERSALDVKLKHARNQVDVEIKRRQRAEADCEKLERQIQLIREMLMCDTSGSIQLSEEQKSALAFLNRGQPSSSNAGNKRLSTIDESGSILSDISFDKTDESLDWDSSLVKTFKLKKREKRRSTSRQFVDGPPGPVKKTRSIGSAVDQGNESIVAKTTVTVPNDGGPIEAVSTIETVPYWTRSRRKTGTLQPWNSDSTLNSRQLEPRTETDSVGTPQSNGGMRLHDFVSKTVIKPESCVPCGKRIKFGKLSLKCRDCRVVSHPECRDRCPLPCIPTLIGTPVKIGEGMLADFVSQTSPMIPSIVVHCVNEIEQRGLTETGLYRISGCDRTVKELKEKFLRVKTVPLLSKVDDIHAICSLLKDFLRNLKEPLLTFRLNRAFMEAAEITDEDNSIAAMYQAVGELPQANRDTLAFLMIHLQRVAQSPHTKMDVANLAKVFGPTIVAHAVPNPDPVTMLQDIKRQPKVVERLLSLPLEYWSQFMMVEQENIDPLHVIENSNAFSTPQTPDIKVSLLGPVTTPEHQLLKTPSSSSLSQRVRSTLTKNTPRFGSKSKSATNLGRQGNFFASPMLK
Put plainly: MgcRacGAP GTPase-activating activity inhibitors, confirmation, biochemical, ADP Hunter fluorescence, primary and confirmatory (AID 624330). It is filed as functional.

The next data set addresses Cytochrome P450 2C19 (Homo sapiens, UniProt P33261). Put plainly: Cytochrome panel assay with activity outcomes. Panel member name: p450-cyp2c19 Compounds with AC50 equal or less than 10 uM are considered active. It is filed as functional.
The next data set addresses Cytochrome P450 3A4 (Homo sapiens, UniProt P08684).
The nature of data set [2]: HEp-2 cell cytotoxicity, dose response, cytotoxicity control for RSV inhibitor project, HTS (AID 2410). It is filed as functional. The settings on record: human respiratory syncytial virus.
Data set [3] is described as follows: Luminescence Cell-Based Dose Confirmation HTS to Identify Activators of 5'UTR Stem-Loop Driven Alpha-Synuclein mRNA Translation in H4 Neuroglioblastoma Cells. [Related pubchem assays: 1829 (Project Summary), 1814 (Primary HTS)]. In kind it is functional.
Data set [4] in a line: Luminescence Cell-Based Dose Response HTS to Identify Activators of Luciferase Translation or Activity in H4 […] Cells. [Related pubchem assays: 1829 (Project Summary), 1814 (Primary HTS)]. It is filed as functional.
For the next data set, the system named is H4. Put plainly: Luminescence Cell-Based Dose Response HTS to Identify Activators of 5'UTR Stem-Loop Driven Prion Protein mRNA Translation in H4 Neuroglioblastoma Cells. [Related pubchem assays: 1829 (Project Summary), 1814 (Primary HTS)]. It is filed as functional. The following applies: Homo sapiens.
The next data set addresses T2, Cytochrome P450 1A2 (Homo sapiens, UniProt P05177).
T2 sequence (P05177 whole entry): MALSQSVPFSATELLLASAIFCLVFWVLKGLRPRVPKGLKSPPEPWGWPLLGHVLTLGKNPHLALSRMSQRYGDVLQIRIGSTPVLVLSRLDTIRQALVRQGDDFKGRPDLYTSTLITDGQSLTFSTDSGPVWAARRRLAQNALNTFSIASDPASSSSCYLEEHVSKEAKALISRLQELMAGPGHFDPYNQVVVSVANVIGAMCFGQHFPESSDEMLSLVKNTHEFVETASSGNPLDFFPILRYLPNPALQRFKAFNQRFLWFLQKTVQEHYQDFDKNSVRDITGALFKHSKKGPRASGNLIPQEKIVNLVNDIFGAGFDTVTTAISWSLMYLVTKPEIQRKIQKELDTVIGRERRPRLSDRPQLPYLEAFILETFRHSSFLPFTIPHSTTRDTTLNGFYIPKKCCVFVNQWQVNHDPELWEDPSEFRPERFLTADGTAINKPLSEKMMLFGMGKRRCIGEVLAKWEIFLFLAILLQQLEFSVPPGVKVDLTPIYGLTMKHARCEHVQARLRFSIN

The target in data set [5] is T3, Corticotropin-releasing factor receptor 2/Corticotropin-releasing factor-binding protein (Homo sapiens, UniProt P24387+Q13324).
T3 sequence (Q13324 whole entry): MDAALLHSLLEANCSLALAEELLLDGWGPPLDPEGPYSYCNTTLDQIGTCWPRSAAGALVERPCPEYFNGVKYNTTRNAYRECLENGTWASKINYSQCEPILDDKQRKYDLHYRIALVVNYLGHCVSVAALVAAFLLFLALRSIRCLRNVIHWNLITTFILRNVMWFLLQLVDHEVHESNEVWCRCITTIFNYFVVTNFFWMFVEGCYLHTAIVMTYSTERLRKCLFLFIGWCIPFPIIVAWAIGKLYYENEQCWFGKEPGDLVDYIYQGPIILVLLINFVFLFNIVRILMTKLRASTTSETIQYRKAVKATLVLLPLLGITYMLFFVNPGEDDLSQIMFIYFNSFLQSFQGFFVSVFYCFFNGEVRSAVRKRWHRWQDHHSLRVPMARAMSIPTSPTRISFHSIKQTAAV
T3 sequence (P24387 whole entry): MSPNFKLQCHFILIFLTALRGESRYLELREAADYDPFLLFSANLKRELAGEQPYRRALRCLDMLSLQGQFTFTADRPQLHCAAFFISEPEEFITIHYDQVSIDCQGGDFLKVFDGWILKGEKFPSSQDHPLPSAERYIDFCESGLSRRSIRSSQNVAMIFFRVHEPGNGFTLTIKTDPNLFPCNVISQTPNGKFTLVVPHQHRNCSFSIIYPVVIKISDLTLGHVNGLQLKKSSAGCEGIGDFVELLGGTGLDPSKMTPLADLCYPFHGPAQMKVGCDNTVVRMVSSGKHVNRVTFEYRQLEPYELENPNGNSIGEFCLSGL
The data set can be described thus: activators of CRF receptor 2 with binding protein – uHTS hits, confirmation (AID 602473). It is filed as functional. The settings on record: read-out: EC50_Mean.

Data set [6] deals with Streptococcus sp. 'group A'. Put plainly: growth inhibition of control SK(-) GAS strain, dose response, counter-screen for streptokinase expression inhibitor project, luminescence, kanamycin, BacTiterGlo, confirmation (AID 1900). It is filed as functional, organism-based.
The test system of the next data set is Streptococcus. Put plainly: Group A Streptococcus viability loss, dose response, counter-screen for streptokinase expression inhibitor project, luminescence, BacTiterGlo (AID 1915).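 Also: potency for reduction of bacterial viability or growth.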 In kind it is functional, organism-based.
The nature of data set [7]: Luminescence Cell-Based Dose Retest to Confirm Inhibitors of Cancer Stem Cells. [Related pubchem assays (depositor defined):AID2717, AID2721]. It is filed as functional. The settings on record: Homo sapiens.

Sequence of Cytochrome P450 2C19 (P33261 whole entry): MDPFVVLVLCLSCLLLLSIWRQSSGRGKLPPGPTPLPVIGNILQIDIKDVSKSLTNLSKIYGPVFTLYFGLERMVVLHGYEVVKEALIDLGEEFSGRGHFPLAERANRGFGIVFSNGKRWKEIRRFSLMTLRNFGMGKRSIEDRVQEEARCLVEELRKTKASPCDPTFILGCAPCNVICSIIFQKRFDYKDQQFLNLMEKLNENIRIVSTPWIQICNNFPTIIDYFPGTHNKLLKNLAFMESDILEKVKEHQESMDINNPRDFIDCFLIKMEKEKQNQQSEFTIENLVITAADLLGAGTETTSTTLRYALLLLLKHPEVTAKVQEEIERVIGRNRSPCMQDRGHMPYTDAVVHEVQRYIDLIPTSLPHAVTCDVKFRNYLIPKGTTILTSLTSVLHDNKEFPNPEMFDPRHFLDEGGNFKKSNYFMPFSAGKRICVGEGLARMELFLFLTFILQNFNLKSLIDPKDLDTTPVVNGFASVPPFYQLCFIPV
Sequence of Cytochrome P450 3A4 (P08684 whole entry): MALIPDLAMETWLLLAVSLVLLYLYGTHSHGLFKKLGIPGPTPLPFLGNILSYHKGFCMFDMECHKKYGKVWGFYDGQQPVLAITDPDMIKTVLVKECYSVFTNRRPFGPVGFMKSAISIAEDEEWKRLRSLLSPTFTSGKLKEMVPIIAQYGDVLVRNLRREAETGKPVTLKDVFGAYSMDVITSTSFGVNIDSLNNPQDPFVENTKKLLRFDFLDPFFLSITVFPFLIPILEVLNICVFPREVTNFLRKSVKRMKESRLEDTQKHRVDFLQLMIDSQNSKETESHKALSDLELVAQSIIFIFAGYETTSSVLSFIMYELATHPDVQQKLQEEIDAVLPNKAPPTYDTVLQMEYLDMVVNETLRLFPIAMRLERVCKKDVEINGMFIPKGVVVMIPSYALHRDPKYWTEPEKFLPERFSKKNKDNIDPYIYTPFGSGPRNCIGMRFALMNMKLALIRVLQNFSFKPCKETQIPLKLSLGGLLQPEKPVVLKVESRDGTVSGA

In the case of `CCOc1cc(/C=C2\C(=O)N(Cc3ccco3)C(C)=C2C(=O)OC)ccc1O`, in data set [1], the IC50 is 69.9 µM (active).

Regarding `CCc1ccccc1OC[C@@H](O)CN[C@H]1CCCc2ccccc21`, the AC50 on Cytochrome P450 2C19 (read-out: AC50) is 2 µM (inconclusive).

As to `CCNC(=O)CSc1nnc(C2CC2)n1-c1ccccc1`, the AC50 at Cytochrome P450 2C19 (read-out: AC50) was 22.4 µM (inconclusive); at Cytochrome P450 3A4, 28.2 µM (inconclusive).

In the case of `COc1ccc(/C=C2\CCCC3C2=NN(C(=O)c2ccco2)C3c2ccc(OC)c(OC)c2)cc1OC` (stereo unspecified), on Cytochrome P450 2C19 (read-out: AC50), the AC50 was 31.6 µM (inconclusive).

For `CN(C)C(=O)Oc1cc(OC(=O)N(C)C)cc([C@@H](O)CNC(C)(C)C)c1`, the AC50 entry at Cytochrome P450 2C19 is on record as “inconclusive”.

For the molecule `CCOc1ccc(Cl)cc1CNCCNCCO.Cl`, the AC50 result at Cytochrome P450 2C19 was “inconclusive”.

`COc1ccc(Cc2nc3ccc(C(=O)NCCc4cccc(C)n4)cc3o2)cc1`: in data set [2], the CC50 is 19.7 µM (active).

For `Cc1ccc(NC(=O)c2ccc(NCCCN3CCOCC3)c([N+](=O)[O-])c2)cc1Cl`, the 50% cytotoxic concentration (CC50) in [2] was 12.8 µM (active).

As for `Cc1cccc(N(C)Cc2nnc(-c3cccc(Br)c3)o2)c1`, in [2], the CC50 was 33.1 µM (active).

On to `C=C1CCO[C@@]2([C@H](O)[C@@](C)(O)CO)NC(=O)[C@]1(O)NC2=O`, for which the AC50 entry at Cytochrome P450 2C19 is “inconclusive”.

On to `Cc1cnn(CCC(=O)NN=C(S)Nc2ccc(F)cc2)c1`, for which the half-maximal activity concentration (AC50) at Cytochrome P450 2C19 (read-out: AC50) and on Cytochrome P450 3A4 was 17.8 µM (inconclusive) each time.

On to `O=C(c1ccco1)N1CCn2c1nc1ccccc12`, for which the EC50 was 1.12 µM (active) in [3], 35.3 µM (active) in data set [4] and 6.26 µM (active) in the data set on H4.

As to `COC(=O)[C@H](CCSC)NC(=O)NCc1ccccc1F`, the AC50 at Cytochrome P450 2C19 (read-out: AC50) was 0.0158 µM (inconclusive).

In the case of `CS(=O)(=O)N1CCN(C2C3CC4CC(C3)CC2C4)CC1` (stereo unspecified), the IC50 in [1] was 152 µM (active).

For `c1ccc(Cn2c(Sc3nnnn3-c3ccccc3)nnc2-c2ccccc2)cc1`, the EC50 is > 120 µM (not active) in data set [3], 11.9 µM (active) in [4] and > 120 µM (not active) in the data set with H4.

For the molecule `Oc1ccc2ccccc2c1Br`, the IC50 in data set [1] is 20.3 µM (active).

Turning to `Cc1cc(N/C=C\C(=O)c2ccc(Cl)c(Cl)c2)no1`, the figures for the EC50 (in data set [3]; in data set [4]; in the data set with H4) were 2.53 µM (active), 15 µM (active) and > 120 µM (not active), respectively.

In the case of `Cc1nn(-c2ccc3ccccc3c2)c(=O)c2ccccc12`, the EC50 was < 0.1 µM (active) in data set [3], 0.213 µM (active) in data set [4] and 29.7 µM (active) with H4.

As to `O=C1OC(c2ccccc2)=N/C1=C\N1CCCCC1`, the results for the EC50 (in [3]; in data set [4]; with H4) were 0.176 µM (active), 0.374 µM (active) and > 120 µM (not active), respectively.

For `CCOc1ccc(Nc2ncnc3c2nnn3Cc2ccccc2)cc1`, the EC50 in data set [3] was 17.7 µM (active); in data set [4], 18.8 µM (active); with H4, 30.9 µM (active).

With `COCCn1c(=O)c(-c2cccc(C#N)c2)nc2cnc(Oc3ccc(OC)cc3)nc21`, the AC50 was 39.8 µM (inconclusive) on Cytochrome P450 2C19 (read-out: AC50) and 12.6 µM (inconclusive) at Cytochrome P450 1A2.

`Cc1ccc(S(=O)(=O)N[C@H](C(=O)OCC(=O)N2N=C(c3ccc(Cl)cc3)CC2c2ccco2)C(C)C)cc1` (stereo partly specified): in data set [2], the CC50 is > 50 µM (active). Also, the EC50 in [5] is > 53 µM (inactive).

On to `O=C(CN1CCN(c2ncccn2)CC1)N1CCCC1`, for which the IC50 in [1] is 176 µM (active).

Regarding `Cc1ccc2nc(NC(=O)C3CCCN(S(=O)(=O)c4c[nH]cn4)C3)sc2c1` (stereo unspecified), the values for the EC50 (in [3]; in data set [4]; with H4) were 30.4 µM (active), 23.4 µM (active) and 20.8 µM (active), respectively.

Take `CCCCCn1cc[n+](C2=C([N-]S(=O)(=O)c3ccc(Br)cc3)C(=O)c3ccccc3C2=O)c1`: the EC50 in data set [6] is 4.17 µM (active); in the data set on Streptococcus, 6.33 µM (active).

Turning to `Cc1ccc(C(=O)Nc2cc(C(C)C)c(O)c(C(C)C)c2)cc1`, in data set [2], the CC50 is 32 µM (active).

`O=C(/C=C/c1ccccc1)OCCNC1=NS(=O)(=O)c2ccccc21`: the CC50 in data set [2] is 36.4 µM (active).

With `CCOC(=O)c1ccc2[nH]c3c(c2c1)CCCC3NC=O` (stereo unspecified), the CC50 in data set [2] was 36 µM (active).

In the case of `Nc1c(-c2ccccc2)cnn1-c1cccc(C(F)(F)F)c1`, the EC50 in [3] is 0.538 µM (active); in data set [4], 56.7 µM (active); with H4, 8 µM (active).

With `COc1ccc(Oc2ncc3nc(-c4ccccc4)c(=O)n(C4CC4)c3n2)cc1`, the AC50 at Cytochrome P450 2C19 (read-out: AC50) is 31.6 µM (inconclusive).

As for `C=C[C@@H]1c2cc(C)ccc2N(S(=O)(=O)c2ccc(C)cc2)[C@H](c2ccc(OC(C)=O)cc2)C1(C#N)C#N`, the AC50 in [7] was 804 nM (active).

For `COc1ccc(CCNC(=O)Cn2cnc3c2c(=O)n(C)c(=O)n3C)cc1OC`, the AC50 result was “inconclusive” at Cytochrome P450 2C19 and 3.16 µM (inconclusive) at Cytochrome P450 1A2.

For `Cc1cccc(NC(=O)CSc2nnnn2C)n1`, the AC50 at Cytochrome P450 2C19 (read-out: AC50) was 39.8 µM (inconclusive).

As to `COc1cc(/C=N/Nc2nc(C)cc(O)n2)ccc1O`, in data set [1], the IC50 is 23.9 µM (active).

In the case of `CCOc1cc(/C=N/N2CCN(Cc3ccccc3)CC2)ccc1O`, the IC50 in [1] was 86.7 µM (active).

As to `Cc1ccc2c(c1)/C(=N/C1CCCCC1)c1cc3ccccc3nc1-2`, the EC50 in data set [3] is 14.9 µM (active); in [4] it was 37.2 µM (active); in the data set with H4 it was 0.408 µM (active).

As for `CCCn1c(=O)c(C(=O)N/N=C/c2ccc(F)cc2)c(O)c2ccccc21`, the values for the EC50 (in data set [6]; with Streptococcus) were 1.99 µM (active) and 3.31 µM (active), respectively.

As for `O/N=C1\CCCc2ccc(Cl)cc21`, in data set [2], the 50% cytotoxic concentration (CC50) is 19.5 µM (active).

Turning to `C/C(=N\NC(=O)c1ccccc1C)c1ccc(NC(=O)c2cccs2)cc1`, the results for the AC50 at Cytochrome P450 2C19 (read-out: AC50) and at Cytochrome P450 1A2 were 31.6 µM (inconclusive) and 22.4 µM (inconclusive), respectively.

In the case of `CCCCNCC(O)(c1ccc(Cl)cc1)c1ccc(Cl)cc1`, the CC50 in data set [2] is 7.11 µM (active).
